In assay [1] the target is T1, second (BD2: amino acids E352-E168) bromodomain of BRD4 (Homo sapiens, UniProt O60885).
T1 construct: protocol
Kind of assay: TR-FRET bromodomain binding assay, BRD4 BD2. To be noted: TR-FRET assay protocol (A-G, compound concentration range); Ki calculated from IC50, probe Kd and probe concentration; read-out: TR-FRET Binding Ki: BRD4 (BDII_E352-M457). The method, then:
(§1) A time-resolved fluorescence resonance energy transfer (TR-FRET) assay was used to determine the affinities of compounds of the Examples listed in Table 1 for each bromodomain of BRD4. His-tagged first (BD1: amino acids K57-E168) and second (BD2: amino acids E352-E168) bromodomains of BRD4 were expressed and purified. An Alexa647-labeled BET-inhibitor was used as the fluorescent probe in the assay.
(§2) Compound dilution series were prepared in DMSO via an approximately 3-fold serial dilution from one of the following:
(§3) or 5-fold serial dilution from one of the following:
(§4) Assay method A: 2.5 mM-800 nM
(§5) For Assay methods A, C, D, and F: Compounds were then diluted 6:100 in assay buffer (20 mM Sodium Phosphate, pH 6.0, 50 mM NaCl, 1 mM Ethylenediaminetetraacetic acid, 0.01% Triton X-100, 1 mM DL-Dithiothreitol) to yield 3× working solutions. […] of this solution were added to the assay plate to reach a final volume of 18 μL.
(§6) TR-FRET data were normalized to the means of 24 no-compound controls (“high”) and 8 controls containing 1 μM un-labeled probe (“low”). Percent inhibition was plotted as a function of compound concentration and the data were fit with the 4 parameter logistic equation to obtain IC50s. Inhibition constants (Ki) were calculated from the IC50s, probe Kd and probe concentration. Typical Z′ values were between 0.65 and 0.75.

Assay [2] has as its target T2, first (BD1: amino acids K57-E168) bromodomain of BRD4 (Homo sapiens, UniProt O60885).
T2 construct: His-tagged first (BD1: amino acids K57-E168)
Kind of assay: TR-FRET bromodomain binding assay, BRD4 BD1. To be noted: TR-FRET assay protocol (A-G, compound concentration range); Ki calculated from IC50, probe Kd and probe concentration; read-out: TR-FRET Binding Ki: BRD4 (BDI_K57-E168). The method, then:
as §1, §2, §3, §4, §5, §6

The text below walks through data of patent US9561231B2 (AbbVie Inc., priority 2012, dated 2017).

pKi: −log10 of the molar value.

By pKi is commonly meant −log10 of the Ki, conventionally taken in molar units. For `COC(=O)COc1cc(=O)n(C)nc1-c1ccccc1Oc1ccccc1` [Example 38, methyl{[1-methyl-6-oxo-3-(2-phenoxyphenyl)-1,6-dihydropyridazin-4-yl]oxy}acetate], the figures for the pKi in assay [1] and in assay [2] were 5.17 and 5.20, respectively.

With `COc1cc(=O)n(C)nc1-c1ccccc1OC1CCCCC1` [Example 39, 6-[2-(cyclohexyloxy)phenyl]-5-methoxy-2-methylpyridazin-3(2H)-one], the figures for the pKi in assay [1] and in assay [2] were 4.84 and 5.45, respectively.

On to `COc1cc(=O)n(C)nc1-c1ccccc1OCc1ccccn1` [Example 40, 5-methoxy-2-methyl-6-[2-(pyridin-2-ylmethoxy)phenyl]pyridazin-3(2H)-one], for which the negative-log Ki (pKi) in assay [1] was 4.70; in assay [2], 5.02.

Take `COc1cc(=O)n(C)nc1-c1ccccc1OCc1ccc2[nH]ncc2c1` [Example 41, 6-[2-(1H-indazol-5-ylmethoxy)phenyl]-5-methoxy-2-methylpyridazin-3(2H)-one]: the pKi in assay [1] is below 4.69; in assay [2], below 4.89.

For the molecule `COc1cc(=O)n(C)nc1-c1ccccc1OCCC1CCCCC1` [Example 42, 6-[2-(2-cyclohexylethoxy)phenyl]-5-methoxy-2-methylpyridazin-3(2H)-one], the negative logarithm of the Ki (pKi) in assay [1] was below 4.65; in assay [2] it was below 4.90.

Consider `COc1cc(=O)n(C)nc1-c1ccccc1OCC1CCN(C(=O)OC(C)(C)C)CC1` [Example 43, tert-butyl 4-{[2-(4-methoxy-1-methyl-6-oxo-1,6-dihydropyridazin-3-yl)phenoxy]methyl}piperidine-1-carboxylate], for which the figures for the pKi in assay [1] and in assay [2] were below 4.65 and below 5.24, respectively.

As to `COc1cc(=O)n(C)nc1-c1ccccc1OCC1CCNCC1` [Example 44, 5-methoxy-2-methyl-6-[2-(piperidin-4-ylmethoxy)phenyl]pyridazin-3(2H)-one], the pKi in assay [1] was 5.29; in assay [2] it was 5.57.

Take `COc1cc(=O)n(C)nc1-c1ccccc1OCc1ccncc1` [Example 45, 5-methoxy-2-methyl-6-[2-(pyridin-4-ylmethoxy)phenyl]pyridazin-3(2H)-one]: the negative-log Ki (pKi) in assay [1] was below 4.95; in assay [2], below 5.25.

For the molecule `COc1cc(=O)n(C)nc1-c1ccccc1OCC1CCCC1` [Example 46, 6-[2-(cyclopentylmethoxy)phenyl]-5-methoxy-2-methylpyridazin-3(2H)-one], the pKi was 4.74 in assay [1] and 5.36 in assay [2].

`COc1cc(=O)n(C)nc1-c1ccccc1OCC1CCOCC1` [Example 47, 5-methoxy-2-methyl-6-[2-(tetrahydro-2H-pyran-4-ylmethoxy)phenyl]pyridazin-3(2H)-one]: the pKi in assay [1] is below 4.65; in assay [2], 5.28.

On to `COC(=O)C1CCN(c2cc(=O)n(C)nc2-c2ccccc2Oc2ccccc2)C1` (centres unmarked) [Example 48, methyl 1-[1-methyl-6-oxo-3-(2-phenoxyphenyl)-1,6-dihydropyridazin-4-yl]pyrrolidine-3-carboxylate], for which the values for the negative-log Ki (pKi) in assay [1] and in assay [2] were 5.97 and 5.03, respectively.

On to `CN1CCN(c2cc(=O)n(C)nc2-c2ccccc2Oc2ccccc2)CC1=O` [Example 51, 2-methyl-5-(4-methyl-3-oxopiperazin-1-yl)-6-(2-phenoxyphenyl)pyridazin-3(2H)-one], for which the negative logarithm of the Ki (pKi) in assay [1] was 5.18; in assay [2], 4.94.

As for `Cn1nc(-c2ccccc2-c2ccccc2)ccc1=O` [Example 52, 6-(biphenyl-2-yl)-2-methylpyridazin-3(2H)-one], the results for the pKi in assay [1] and in assay [2] were 4.98 and 5.05, respectively.

As for `Cn1nc(-c2ccccc2-c2cccc(C#N)c2)ccc1=O` [Example 53, 2′-(1-methyl-6-oxo-1,6-dihydropyridazin-3-yl)biphenyl-3-carbonitrile], the results for the negative logarithm of the Ki (pKi) in assay [1] and in assay [2] were below 4.84 and below 4.94, respectively.

As for `Cc1ccc(-c2cc(=O)n(C)nc2-c2ccccc2Oc2ccccc2)cc1N` [Example 64, 5-(3-amino-4-methylphenyl)-2-methyl-6-(2-phenoxyphenyl)pyridazin-3(2H)-one], the figures for the pKi in assay [1] and in assay [2] were 6.29 and 6.35, respectively.

With `Cn1nc(-c2ccccc2Oc2ccccc2)c(-c2ccc(C=O)cc2)cc1=O` [Example 65, 4-[1-methyl-6-oxo-3-(2-phenoxyphenyl)-1,6-dihydropyridazin-4-yl]benzaldehyde], the negative logarithm of the Ki (pKi) in assay [1] is 6.85; in assay [2] it was 6.10.

On to `Cn1nc(-c2ccccc2Oc2ccccc2)c(-c2ccc(C(O)C3CCCC3)cc2)cc1=O` (centres unmarked) [Example 74, 5-{4-[cyclopentyl(hydroxy)methyl]phenyl}-2-methyl-6-(2-phenoxyphenyl)pyridazin-3(2H)-one], for which the pKi in assay [1] is 5.98; in assay [2], 6.20.

With `Cn1nc(-c2ccccc2Oc2ccccc2)c(-c2ccc(C(O)c3ccccc3)cc2)cc1=O` (centres unmarked) [Example 76, 5-{4-[hydroxy(phenyl)methyl]phenyl}-2-methyl-6-(2-phenoxyphenyl)pyridazin-3(2H)-one], the pKi in assay [1] was 5.89; in assay [2], 6.12.

For the molecule `C=CCC(O)c1ccc(-c2cc(=O)n(C)nc2-c2ccccc2Oc2ccccc2)cc1` (centres unmarked) [Example 77, 5-[4-(1-hydroxybut-3-en-1-yl)phenyl]-2-methyl-6-(2-phenoxyphenyl)pyridazin-3(2H)-one], the pKi in assay [1] was 6.42; in assay [2], 6.29.

As to `CC(=O)OCc1ccc(-c2cc(=O)n(C)nc2-c2ccccc2Oc2ccccc2)cc1` [Example 80, 4-[1-methyl-6-oxo-3-(2-phenoxyphenyl)-1,6-dihydropyridazin-4-yl]benzyl acetate], the pKi in assay [1] is 6.36; in assay [2], 6.15.

As to `Cn1nc(-c2ccccc2Oc2ccccc2)c(C2=CCNCC2)cc1=O` [Example 82, 2-methyl-6-(2-phenoxyphenyl)-5-(1,2,3,6-tetrahydropyridin-4-yl)pyridazin-3(2H)-one], the negative logarithm of the Ki (pKi) in assay [1] was 5.61; in assay [2], 5.39.

With `CN1CC=C(c2cc(=O)n(C)nc2-c2ccccc2Oc2ccccc2)CC1` [Example 83, 2-methyl-5-(1-methyl-1,2,3,6-tetrahydropyridin-4-yl)-6-(2-phenoxyphenyl)pyridazin-3(2H)-one], the pKi in assay [1] is 5.17; in assay [2], 5.44.

As to `CC(=O)N1CC=C(c2cc(=O)n(C)nc2-c2ccccc2Oc2ccccc2)CC1` [Example 84, 5-(1-acetyl-1,2,3,6-tetrahydropyridin-4-yl)-2-methyl-6-(2-phenoxyphenyl)pyridazin-3(2H)-one], the negative logarithm of the Ki (pKi) in assay [1] was 6.00; in assay [2] it was 5.99.

Consider `Cn1nc(-c2ccccc2Oc2ccccc2)c(C2=CCN(S(C)(=O)=O)CC2)cc1=O` [Example 85, 2-methyl-5-[1-(methylsulfonyl)-1,2,3,6-tetrahydropyridin-4-yl]-6-(2-phenoxyphenyl)pyridazin-3(2H)-one], for which the pKi in assay [1] was 6.10; in assay [2], 5.79.

Regarding `Cn1nc(-c2ccccc2Oc2ccccc2)c(C2CCN(C(=O)OC(C)(C)C)CC2)cc1=O` [Example 86, tert-butyl 4-[1-methyl-6-oxo-3-(2-phenoxyphenyl)-1,6-dihydropyridazin-4-yl]piperidine-1-carboxylate], the negative logarithm of the Ki (pKi) in assay [1] is 5.56; in assay [2], below 4.89.

`Cn1nc(-c2ccccc2Oc2ccccc2)c(C2CCNCC2)cc1=O` [Example 87, 2-methyl-6-(2-phenoxyphenyl)-5-(piperidin-4-yl)pyridazin-3(2H)-one]: the negative logarithm of the Ki (pKi) is 5.51 in assay [1] and 5.70 in assay [2].

For the molecule `CC(=O)N1CCC(c2cc(=O)n(C)nc2-c2ccccc2Oc2ccccc2)CC1` [Example 89, 5-(1-acetylpiperidin-4-yl)-2-methyl-6-(2-phenoxyphenyl)pyridazin-3(2H)-one], the negative-log Ki (pKi) is 5.41 in assay [1] and 5.09 in assay [2].

As for `Cn1nc(-c2ccccc2Oc2ccccc2)c(C2CCN(S(C)(=O)=O)CC2)cc1=O` [Example 90, 2-methyl-5-[1-(methylsulfonyl)piperidin-4-yl]-6-(2-phenoxyphenyl)pyridazin-3(2H)-one], the negative logarithm of the Ki (pKi) is 5.63 in assay [1] and 5.34 in assay [2].

As to `Cc1nnc(-c2ccc(-c3cc(=O)n(C)nc3-c3ccccc3Oc3ccccc3)cc2)o1` [Example 91, 2-methyl-5-[4-(5-methyl-1,3,4-oxadiazol-2-yl)phenyl]-6-(2-phenoxyphenyl)pyridazin-3(2H)-one], the negative-log Ki (pKi) in assay [1] was 6.62; in assay [2], below 6.62.

As for `Cn1nc(-c2ccccc2Oc2ccccc2)c(-c2ccc(Cc3ccccc3)cc2)cc1=O` [Example 93, 5-(4-benzylphenyl)-2-methyl-6-(2-phenoxyphenyl)pyridazin-3(2H)-one], the pKi in assay [1] was 5.49; in assay [2], below 4.89.

Turning to `Cn1nc(-c2ccccc2Oc2ccccc2)c(-c2ccc(CC#N)cc2)cc1=O` [Example 94, {4-[1-methyl-6-oxo-3-(2-phenoxyphenyl)-1,6-dihydropyridazin-4-yl]phenyl}acetonitrile], the pKi in assay [1] was 6.81; in assay [2] it was 6.40.
